The text below walks through data of patent US10357537B2, “Cyclotides as immunosuppressive agents” (priority 2011, dated 2019).

“And” between values parts separate entries of the source, which are not always exact repeats. Equal values may be shown once. Bridge positions count the residues as written; N and C are the ends. Peptide text beside a SMILES is read from it.

In assay [1] the test system is nematodes. Briefly: Relative nematocidal activity (other assays, Table 2). Conditions: some cells print two values separated by a slash. The class given is in vivo.
Assay [2] concerns Jurkat cells. Kind of assay: Ca2+ release, Fura-2. The class given is cell-based, human. Particulars: CsA, T20K 4 μM, V10K 4 μM. How it is done:
FIG. 17. Ca^2+ release in human Jurkat and T-cells. Jurkat cells (A) and T-cells (B) 1×10^6 were loaded with 1 μM Fura-2 and 0.02% Puronic F-127 for 30 minutes at 37° C. Cells were centrifuged for 5 minutes at 1200 rpm and resuspended in media [RPMI 1640 with 10% FCS, penicillin (100 U/mL) and streptomycin ([…])]. 100 μL of cell suspension were transferred to a black 96-well plate with a clear flat-bottom. Briefly before analysis the fluorometer Synergy H4 (BioTek) was tempered to 37° C. The fluorescence time course was then measured with: extinction 340/380 nm and emission 510 nm in 30 seconds intervals, continuously shaking. Ca^2+ influx was initiated by adding compounds to the cells (illustrated by the arrow). To receive maximum Ca^2+ release cells were stimulated with PMA (50 ng/mL) and Ionomycin (500 ng/mL) and T-cells additionally with PHA-L (10 μg/mL). For lowest Ca^2+ levels, cells remained untreated.
Jurkat cells T-cells were treated as described for FIG. 17, supra.

The subject of assay [3] is IL2 release in human T-cells. Briefly: IL2 release in human T-cells, ELISA. The class given is cell-based. Particulars: CsA, T20K 4 μM, V10K 4 μM; PHA-L, PMA/ionomycin. The method, then:
B. IL2 release in human T-cells after treatment with cyclotide. […] After another two hours PHA-L (10 μg/mL) was added to the appropriate wells and incubated over night at 37° C. On the next day T-cells were re-stimulated with Ionomycin (500 ng/mL) and PMA (50 ng/mL) for 6 hours at 37° C. Cells were then centrifuged at 3000 rpm for 5 minutes to gain their supernatants. Supernatants of stimulated T-cells were analyzed for their IL2 release using a human IL-2 ELISA Kit from eBioscience according to the manufacturer's instructions. The color reaction was evaluated at an optical density of 450 nm by the microplate reader Synergy H4 (BioTek).
Moreover, supernatants of stimulated T-cells were analyzed for their IL2 release using a human IL-2 ELISA Kit from eBioscience according to the manufacturer's instructions. The color reaction was evaluated at an optical density of 450 nm by the microplate reader Synergy H4 (BioTek) (FIG. 12B).
For orientation: ELISA stands for enzyme-linked immunosorbent assay.

In assay [4] the test system is PHA-L-stimulated PBMC. Kind of assay: Proliferation of PHA-L-stimulated CFSE-labelled PBMC with or without exogenous IL-2. The class given is cell-based, human. Conditions: cyclotides 4 μM, CsA 5 μg/mL, 3 day culture; for proliferation with exogenous IL-2: IL-2 10 U/mL. How it is done: FIG. 13. Proliferation capacity of cyclotide-treated PBMC in the presence of exogenous IL-2. […] The cells were cultured without exogenous IL-2 (10 U/mL) (A and B) or in the presence of IL-2 (C and D). The CFSE-labelled cells were measured after a 3 day culture period by flow cytometry and representative data are presented in dot plots (A and C). Data are presented as mean and standard deviation (SD) of three independent experiments.
(§1) Following purification, PBMCs were equilibrated for 2 h at 37° C. […] This was followed by washing of each well with 100 μl PBS (centrifugation for 5 min, 1000 rpm, 20° C.) and re-suspending the cells in 100 μl medium for further assays.
Purified PBMCs (5*10^6 cells/ml) were incubated with […] of the fluorescent dye CFSE (5-carbofluoreszenein-ciacetat-succinylester) for 10 min at 37° C. The reaction was stopped using medium, cells were washed one time with medium by centrifugation (10 min, 300×g, 20° C.) and diluted with medium to 4*10^6 cells/ml.

In assay [5] the test system is IL-2 surface receptor CD25 on PBMC. Kind of assay: IL-2 surface receptor CD25 expression, FACS. The format is cell-based, human. Conditions: cyclotides 4 μM, CsA 5 μg/mL, PHA-L; stimulated untreated PBMCs = 100%. The method, then: PBMCs were isolated from blood samples of healthy adults that were provided by the transfusion center of the university hospital in Freiburg (Germany). […] The lymphocyte-enriched layer was transferred into a new vessel and washed three times with PBS and centrifuged again (10 min, twice with 300×g and last time with 800 rpm, 20° C.). For the following experiments, the cells were either stained with CFSE or diluted with medium to 4*10^6 cells/ml. Cells were counted in alight microscope using trypan blue staining and a hemocytometer.
as §1
Activated cells were transferred into a 96-well plate, centrifuged (5 min, 1000 rpm, 20° C.), washed one time with 100 μl FACS-buffer and stained with CD25 PE for 15 min at 4° C. Then cells were washed twice with FCS-buffer and resuspended in 100 μl FACS-buffer, transferred into FACS vials with a total volume of 250 μl and the expression of IL2 surface receptor CD25 was measured by FACS analysis using a FACSCalibur instrument (BD Biosciences).
Amongst other pathways, T-cell proliferation is determined by binding of the cytokine IL-2 to its cell surface receptor. Therefore the influence of cyclotides on the expression of the IL-2 receptor was tested. […] As control substance CsA was used. […] Treatment with V10A yields 114%±12.5, V10K yields 112%±16.3 and T8K yields 114%±17.3 CD25 surface expression after 24 h as compared to the control (FIG. 11B).

Turning to `CC(C)C[C@@H]1NC(=O)CNC(=O)[C@H](CC(N)=O)NC(=O)[C@H](CCCNC(=N)N)NC(=O)[C@H]([C@@H](C)O)NC(=O)[C@@H]2CSSC[C@@H]3NC(=O)[C@H]([C@@H](C)O)NC(=O)CNC(=O)CNC(=O)[C@H](C(C)C)NC(=O)[C@@H]4CSSC[C@H](NC(=O)[C@H](CCCCN)NC(=O)[C@H](CSSC[C@H](NC(=O)[C@H](C(C)C)NC(=O)[C@@H]5CCCN5C1=O)C(=O)NCC(=O)N[C@@H](CCC(=O)O)C(=O)N[C@@H]([C@@H](C)O)C(=O)N4)NC(=O)CNC(=O)[C@@H]1CCCN1C(=O)[C@H]([C@@H](C)O)NC(=O)[C@H](CC(N)=O)NC3=O)C(=O)N[C@@H](CO)C(=O)N[C@@H](Cc1c[nH]c3ccccc13)C(=O)N1CCC[C@H]1C(=O)N[C@@H](C(C)C)C(=O)N2` [Kalata T20K] (cyclo(CGETCVGGTCNTPGCKCSWPVCTRNGLPV); disulfide 1-15, 5-17, 10-22 (inferred); ring closure inferred), in assay [1], the “Relative activity in other assays (fold difference to kB1): nematocidal” value was 3.0 fold difference to kB1 and 2.6 fold difference to kB1. Further, the “Ca2+ signaling in Jurkat cells” value in assay [2] was “did not induce a change in Ca^2+ signaling”. The “IL2 release in human T-cells” value in assay [3] is “significant inhibition of cell proliferation in accordance to the IL2 level”. Further, in assay [4], the “proliferation with exogenous IL-2” value is recorded as 91%±1.4 and the “proliferation as compared to the control cells, without exogenous IL-2” value is 29%±24. Also, in assay [5], the “CD25 expression after 48 h” value is on record as 46%±18.2 and the “CD25 surface expression after 24 hours” value is 79%±10.1.
Turning to “kalata B1 mutant GLPVCGETCKGGTCNTPGCTCSWPVCTRN (SEQ ID No. 10) [Kalata V10K]”, in assay [1], the “Relative activity in other assays (fold difference to kB1): nematocidal” value is listed as <0.2 fold difference to kB1. Besides, in assay [2], the “Ca2+ signaling in Jurkat cells” value is recorded as “did not induce a change in Ca^2+ signaling”. For the same molecule, in assay [3], the “IL2 release in human T-cells” value is “comparable results”. For the same molecule, in assay [4], the “proliferation with exogenous IL-2” value was “did not change the effect on proliferation” and the “proliferation as compared to the control cells, without exogenous IL-2” value is reported as “no effect on the proliferation”. In assay [5], the “CD25 expression after 48 h” value is reported as “no significant change in receptorexpression” and the “CD25 surface expression after 24 hours” value was 112%±16.3.
